Source: ChEMBL document CHEMBL1132706 (J Med Chem, 1999)

Key:
[1] = target: T1, Human immunodeficiency virus type 1 integrase (Human immunodeficiency virus 1, UniProt Q7ZJM1)
Description: Inhibition of HIV-1 integrase by radiolabeled oligonucleotide-based assay integration

[2] = target: T1, Human immunodeficiency virus type 1 integrase; remark: listed apart in the source
Description: Compound was evaluated for the inhibitory concentration against HIV-1 integrase by radiolabeled oligonucleotide-based assay 3''-processing

CEM-SS [3] = test: Compound was evaluated for the cytoprotection of CEM-SS cells by XTT cytoprotection assay through the NCI AIDS Screen; Not reached due to cytotoxicity; format: functional, cell-based, Homo sapiens
CEM-SS [4] = test: Compound was evaluated for the cytoprotection fo CEM-SS cells by XTT cytoprotection assay through the NCI AIDS Screen; format: functional, cell-based; details: Homo sapiens
CEM-SS [5] = test: Compound was evaluated for the cytoprotection of CEM-SS cells by XTT cytoprotection assay through the NCI AIDS Screen; format: functional, cell-based; details: Homo sapiens
CEM-SS [6] = test: Compound was evaluated for the effect of Order of Addition on Cytoprotection against HIV-1RF at dilution 100, Add at infection; format: functional, Homo sapiens
CEM-SS [7] = test: Compound was evaluated for the effect of Order of Addition on Cytoprotection at dilution 333, Add at infection; format: functional, Homo sapiens
CEM-SS [8] = test: Compound was evaluated for the effect of Order of Addition on Cytoprotection against HIV-1RF at dilution 1000, Pretreat with 100 uM; format: functional, Homo sapiens
CEM-SS [9] = test: Compound was evaluated for the effect of Order of Addition on Cytoprotection against HIV-1RF at dilution 1000, Add at infection; format: functional, Homo sapiens
CEM-SS [10] = test: Compound was evaluated for the effect of Order of Addition on Cytoprotection against HIV-1RF at dilution 333,Pretreat and add 1 uM; format: functional, Homo sapiens
CEM-SS [11] = test: Compound was evaluated for the effect of Order of Addition on Cytoprotection against HIV-1RF at dilution 1000, Pretreat and add 1 uM; format: functional, Homo sapiens
CEM-SS [12] = test: Compound was evaluated for the effect of Order of Addition on Cytoprotection against HIV-1RF at dilution 100, Pretreat with 100 uM; format: functional, Homo sapiens
CEM-SS [13] = test: Compound was evaluated for the effect of Order of Addition on Cytoprotection against HIV-1RF at dilution 100, Pretreat and add 1 uM; format: functional, Homo sapiens
CEM-SS [14] = test: Compound was evaluated for the effect of Order of Addition on Cytoprotection against HIV-1RF at dilution 1000, Pretreat and add 10 uM; format: functional, Homo sapiens
CEM-SS [15] = test: Compound was evaluated for the effect of Order of Addition on Cytoprotection against HIV-1RF at dilution 333, Pretreat and add 10 uM; format: functional, Homo sapiens
CEM-SS [16] = test: Compound was evaluated for the effect of Order of Addition on Cytoprotection against HIV-1RF at dilution 333, Pretreat with 100 uM; format: functional, Homo sapiens
CEM-SS [17] = test: Compound was evaluated for the effect of Order of Addition on Cytoprotection against HIV-1RF at dilution 100, Pretreat and add 10 uM; format: functional, Homo sapiens
MT4 [18] = test: Concentration of compound required to reduce MT-4 cell viability by 50%; format: functional, cell-based; details: Homo sapiens
CEM-SS [19] = test: Compound was evaluated for the effect of Order of Addition on Cytoprotection against HIV-1RF at dilution 333, Add at infection; format: functional, Homo sapiens
MT4 [20] = test: Concentration of compound required to protect 50% of MT-4 cells against retroviral cytopathic effects by HIV-1 ([…]); format: functional, cell-based; details: Homo sapiens

T1 sequence (Q7ZJM1 whole entry): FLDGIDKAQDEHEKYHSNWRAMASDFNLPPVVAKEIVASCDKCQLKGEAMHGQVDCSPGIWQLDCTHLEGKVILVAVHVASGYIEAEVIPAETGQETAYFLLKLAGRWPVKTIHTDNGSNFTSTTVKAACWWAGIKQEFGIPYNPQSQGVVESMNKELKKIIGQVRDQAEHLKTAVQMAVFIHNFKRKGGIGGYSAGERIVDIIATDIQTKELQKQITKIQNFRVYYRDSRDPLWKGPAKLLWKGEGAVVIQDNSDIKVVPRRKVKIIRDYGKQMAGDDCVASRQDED

Row | Structure (SMILES) | IC50 [1] [µM] | IC50 [2] [µM] | IC50 (CEM-SS [5]) [µM] | also measured
1 | COC(=O)[C@H](COC(=O)/C=C/c1ccc(OC(C)=O)c(OC(C)=O)c1)NC(=O)/C=C/c1ccc(OC(C)=O)c(OC(C)=O)c1 | 3.8 | 2.8 | – | –
2 | O=C(/C=C/c1ccc(O)c(O)c1)OCCCOC(=O)/C=C/c1ccc(O)c(O)c1 | 7.5 | 27.5 | – | EC50 (CEM-SS [3]): Not reached; IC50 (CEM-SS [4]): 13.9 µM
3 | O=C(/C=C/c1ccc(O)c(O)c1)NCCOC(=O)/C=C/c1ccc(O)c(O)c1 | 6.5 | > 27.5 | 9.22 | –
4 | CC(=O)Oc1ccc(/C=C/C(=O)OCCCOC(=O)/C=C/c2ccc(OC(C)=O)c(OC(C)=O)c2)cc1OC(C)=O | > 333 | > 333 | – | –
5 | CC(=O)Oc1ccc(/C=C/C(=O)O[C@@H](C)[C@H](C)OC(=O)/C=C/c2ccc(OC(C)=O)c(OC(C)=O)c2)cc1OC(C)=O | > 333 | > 333 | 5.71 | –
6 | CC(=O)Oc1ccc(/C=C/C(=O)O[C@H]2CCCC[C@@H]2OC(=O)/C=C/c2ccc(OC(C)=O)c(OC(C)=O)c2)cc1OC(C)=O | > 333 | > 333 | 5.76 | –
7 | O=C(/C=C/c1ccc(O)c(O)c1)O[C@H]1CCCC[C@@H]1OC(=O)/C=C/c1ccc(O)c(O)c1 | 7.6 | > 24.8 | 5.67 | EC50 (CEM-SS [3]): Not reached
8 | C[C@H](OC(=O)/C=C/c1ccc(O)c(O)c1)[C@H](C)OC(=O)/C=C/c1ccc(O)c(O)c1 | 7.8 | > 38.4 | 3.64 | EC50 (CEM-SS [3]): Not reached
9 | COC(=O)C(COC(=O)/C=C/c1ccc(OC(C)=O)c(OC(C)=O)c1)OC(=O)/C=C/c1ccc(OC(C)=O)c(OC(C)=O)c1 (stereo unspecified) | 10.1 | 10.1 | – | –
10 | COC(=O)[C@@H](COC(=O)/C=C/c1ccc(OC(C)=O)c(OC(C)=O)c1)NC(=O)/C=C/c1ccc(OC(C)=O)c(OC(C)=O)c1 | 3.2 | 2.8 | – | –
11 | O=C(/C=C/c1ccc(O)c(O)c1)NC(COC(=O)/C=C/c1ccc(O)c(O)c1)C(=O)O (stereo unspecified) | 1.7 | 3.3 | – | –
12 | O=C(/C=C/c1ccc(O)c(O)c1)O[C@H](C(=O)O)[C@H](OC(=O)/C=C/c1ccc(O)c(O)c1)C(=O)O [CHICORIC ACID] | – | – | – | Control (CEM-SS [6]): 141%; Control (CEM-SS [7]): 73%; Control (CEM-SS [8]): 168%; Control (CEM-SS [9]): 60%; Control (CEM-SS [10]): 92%; Control (CEM-SS [11]): 50%; Control (CEM-SS [12]): 108%; Control (CEM-SS [13]): 56%; Control (CEM-SS [14]): 135%; Control (CEM-SS [15]): 82%; Control (CEM-SS [16]): 59%; Control (CEM-SS [17]): 114%
13 | Cc1cn([C@H]2C[C@H](N=[N+]=[N-])[C@@H](CO)O2)c(=O)[nH]c1=O [ZIDOVUDINE] | – | – | – | Control (CEM-SS [6]): 35%; Control (CEM-SS [8]): 121%; Control (CEM-SS [9]): 5%; IC50 (MT4 [18]): 100 µM; Control (CEM-SS [19]): 3%; Control (CEM-SS [12]): 114%; EC50 (MT4 [20]): 5 nM; Control (CEM-SS [16]): 119%
